Entries after “also recorded” stand apart in the source; their conditions may differ.

Here are results for seven compounds from US10365268B2, “Methods for identifying modulators of membrane potentials in bipolar disorder and attention deficit hyperactivity disorder” (PsychNostics, LLC, priority 2011, dated 2019).

One assay has as its system RBC. In words: membrane potential ratio (MPR) test: agent added to K+-free, EtOH-containing test buffer versus reference buffer. The conditions noted are these: for EtOH effect (hSK4 opening / hyperpolarization): hSK4 blockers added to the test buffer. The class given is cell-based, human. The source says:
It is essential to understand these differences so that the underlying pathophysiology of these disorders is better understood leading to better diagnostic markers and drug targets. […] Membrane potential ratio (MPR™) is the ratio between the membrane potential in the test buffer and that in the reference buffer. The reference buffer contains NaCl, CaCl2, glucose and Hepes whereas the test buffer contains ethyl alcohol (EtOH) in addition to these compounds. […] The role of the absence of K^+ ions in the buffer on membrane potential and the addition of EtOH needs to be understood in order to explain their effects.
The assay uses a reference buffer or regular buffer and a test buffer. The “reference buffer” or “regular buffer” contains only Na^+, Ca^2+, and HEPES without any other reagents. The “test buffer” containing no potassium (K^+-free buffer) is a HEPES buffer without potassium (4 mM NaHCO3, 5 mM HEPES, 134 mM NaCl, 2.3 mM CaCl2, and 5 mM glucose) and with a K^+ channel altering agent, at a pH of 6.8 (range of 6.6 to 7.0). The test buffer may also contain 30 μM ethacrynic acid dissolved in EtOH as solvent.
In order to verify the CAK channel is involved in the membrane potential of the RBC used for the membrane potential ratios (MPR™) tests, the CAK channel blockers, quinine and clotrimazole were added to the test buffer and the membrane potential ratios (MPR™) was determined. The membrane potential ratios (MPR™) values are shown in box plots. […] Similarly boxes 3, 4 and 5 show the results for clotrimazole (CLTX). Box 3 represents no CLTX, while box 4 for 2.5 micro molar CLTX and box 5 for 5 micro molar concentrations in the test buffer.
Blood samples from a patient were suspended in a reference buffer (reference buffer sample) as well as in a test buffer (test buffer sample) with 3,3′-dihexyloxacarbocyanine iodide (DiOC6) dye, incubated, spun, drained and the […] resuspended in their respective buffers without the dye. The resuspended buffer samples were then distributed in three separate 96 well plates and tested in a Plate Reader for fluorescence intensity. The Plate Reader recorded a data matrix of each of the 96 well plates and the data matrix was transferred to a Template to calculate the ratio between the test buffer sample and the corresponding reference buffer sample. The resulting ratios were calculated to determine the mean value, the standard deviation and the coefficient of variation. This procedure was repeated two more times and the resulting mean value, standard deviation and the coefficient of variation calculated in the same manner. The Membrane Potential Ratio (MPR™) obtained from the mean values was 0.781 (with a standard deviation of 0.014 and coefficient of variation of 1.76). Based on the MPR™ value of 0.781, the patient was diagnosed to have ADHD (with a greater than 97% probability).

For assay [1], the system named is calmodulin-dependent protein kinase II (CaM-kinase II). The conditions noted are these: Ishida et al. 1995; cited from earlier work.
The subject of the next assay is diacylglycerol kinase. As to conditions: human red blood cell membranes; de Courcelles et al. 1985; cited from earlier work.
The mark [2] stands for this setting: CAK channel blockers added to the test buffer (quinine 1 mM; CLTX 2.5 and 5 micro molar), FIG. 2.

Turning to `C=C[C@H]1C[N@@]2CC[C@H]1C[C@H]2[C@H](O)c1ccnc2ccc(OC)cc12` [quinine], the “membrane potential ratio (MPR) values” with RBC (1 mM quinine in the test buffer compared to test buffer without quinine, FIG. 2) is reported as “increased”. Also, the “effect on membrane potentials” value in the assay with RBC (setting [2]) is listed as “depolarized the membrane potentials robustly”. The “EtOH effect (hSK4 opening / hyperpolarization)” value in the assay on RBC (FIG. 2) is listed as “blocked”.

In the case of “autocamtide-2-related inhibitory peptide [AIP]”, the “effect on membrane potential” value in the assay on RBC (5 μM concentration, FIG. 6) is listed as “depolarizes the membrane potential robustly”. The “inhibition of CaM-kinase II” value in assay [1] is “highly specific and potent inhibitor”. Consider `Cc1nc2sccn2c(=O)c1CCN1CCC(=C(c2ccccc2)c2ccc(F)cc2)CC1` [ALX, 6-[2-[4-[(4-fluorophenyl)phenylmethylene]-1-piperidinyl]ethyl]-7-methyl-5H-thiazolo[3,2-a]pyrimidin-5-one], for which the “inhibition of diacylglycerol kinase” value in the assay on diacylglycerol kinase is on record as “found to inhibit diacylglycerol kinase”. Further, the “effect on membrane potential” value in the assay with RBC (three concentrations 2.5 μl, 5 μl and 7.5 μl, FIG. 7) is given as “depolarizes the membrane potential”. With `Nc1ncnc2c1nc(Sc1ccc(Cl)cc1)n2[C@@H]1O[C@@H]2COP(=O)(O)O[C@H]2[C@H]1O` [8-CPT, 8-CPT-cAMP], in the assay with RBC (50 μM in the test buffer, FIG. 3), the “effect on membrane potential ratio (MPR) / membrane potentials” value is recorded as “did not have any effect; also recorded: no effect”. On to `CN[C@@H]1C[C@H]2O[C@@](C)([C@@H]1OC)n1c3ccccc3c3c4c(c5c6ccccc6n2c5c31)C(=O)NC4` [Staurosporine, staurosporine], for which the “effect on membrane potentials” value with RBC (three concentrations (250 nM, 500 nM and 750 nM) in the test buffer, FIG. 5) is recorded as “hyperpolarizes the membrane potentials very effectively”; in the assay on RBC (three concentrations (250 nM, 500 nM and 750 nM) in the test buffer, FIG. 5, listed as staurosporine) it was “hyperpolarizes the membrane potential in a concentration dependent manner”. In the case of `CCCCCCCCCCCCCC(=O)O[C@@H]1[C@@H](C)[C@@]2(O)[C@@H](C=C(CO)C[C@]3(O)C(=O)C(C)=C[C@@H]23)[C@@H]2C(C)(C)[C@]12OC(C)=O` [PMA, phorbol 12-myristate 13-acetate], the “effect on membrane potential ratio (MPR) / cell polarization” value in the assay with RBC (2.5 μM in the test buffer versus without PMA, FIG. 4) is listed as “depolarizes the cells very effectively”. Consider `Clc1ccccc1C(c1ccccc1)(c1ccccc1)n1ccnc1` [clotrimazole], for which, in the assay on RBC (setting [2]), the “effect on membrane potentials” value is recorded as “depolarized the membrane potentials robustly”. In addition, the “EtOH effect (hSK4 opening / hyperpolarization)” value in the assay with RBC (FIG. 2) was “blocked”.
